# Assays:
# [1] = in vivo
# [2] = test system: intracellular aminopeptidases; conditions: cited from earlier work
# [3] = parameters: method as in Talmadge et al, 1986; Ichinose et al, 2003; conditions: ref Talmadge et al, 1986; Ichinose et al, 2003; cited from earlier work
overall exposure versus dose [1],Compound,inhibition of intracellular aminopeptidases [2],immunostimulatory activity [3]
increased in a dose proportional manner,CC(C)C[C@@H](C(=O)N[C@H](C(=O)O)c1ccccc1)[C@H](O)C(=O)NO [CHR-79888],potent inhibitor,–
–,CC(C)C[C@H](NC(=O)[C@@H](O)[C@H](N)Cc1ccccc1)C(=O)O [bestatin],–,immunostimulatory activity has been described
